Source: EP1120414A1, “DISUBSTITUTED MALEIMIDE COMPOUNDS AND MEDICINAL UTILIZATION THEREOF” (Japan Tobacco Inc., priority 1998, dated 2000)
Read-outs that look alike come from different tables or passages of the source.

Key:
PKC β II = target: T1, PKC β II (Homo sapiens, UniProt P05771); assay: PKC enzyme assay (BIOTRAK Protein kinase C enzyme assay system, 32P-ATP phosphorylation of peptide […]); format: biochemical
T1 construct: purchased CALBIOCHEM

PKC α = target: T2, PKC α (Homo sapiens, UniProt P17252); assay: as above; format: biochemical
T2 construct: purchased CALBIOCHEM
How it was run: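 Recombinant human PKC (400 ng/ml solution) phosphorylated the supplied peptide with [γ-32P]ATP in calcium, phosphatidylserine/PMA, DTT and Mg-ATP buffer, 15 min at 37°C. Compounds were tested at 1 nM-10 µM final. Phosphocellulose-bound radioactivity relative to DMSO gave inhibition, from which IC50 was calculated.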

[1] = Protein Kinase C, Human Recombinant; test substance 1 nM-10 µM; 37°C, 15 minutes; read-out: Inhibition of PKC activity IC50 PKC β II
[2] = Protein Kinase C, Human Recombinant; test substance 1 nM-10 µM; 37°C, 15 minutes; read-out: Inhibition of PKC activity IC50 PKC α
[3] = read-out: Inhibition of PKC activity IC50 PKC α; Protein Kinase C, Human Recombinant; test substance 1 nM-10 µM; 37°C, 15 minutes

T1 sequence (P05771 other isoform, or with tags, fused parts or gaps): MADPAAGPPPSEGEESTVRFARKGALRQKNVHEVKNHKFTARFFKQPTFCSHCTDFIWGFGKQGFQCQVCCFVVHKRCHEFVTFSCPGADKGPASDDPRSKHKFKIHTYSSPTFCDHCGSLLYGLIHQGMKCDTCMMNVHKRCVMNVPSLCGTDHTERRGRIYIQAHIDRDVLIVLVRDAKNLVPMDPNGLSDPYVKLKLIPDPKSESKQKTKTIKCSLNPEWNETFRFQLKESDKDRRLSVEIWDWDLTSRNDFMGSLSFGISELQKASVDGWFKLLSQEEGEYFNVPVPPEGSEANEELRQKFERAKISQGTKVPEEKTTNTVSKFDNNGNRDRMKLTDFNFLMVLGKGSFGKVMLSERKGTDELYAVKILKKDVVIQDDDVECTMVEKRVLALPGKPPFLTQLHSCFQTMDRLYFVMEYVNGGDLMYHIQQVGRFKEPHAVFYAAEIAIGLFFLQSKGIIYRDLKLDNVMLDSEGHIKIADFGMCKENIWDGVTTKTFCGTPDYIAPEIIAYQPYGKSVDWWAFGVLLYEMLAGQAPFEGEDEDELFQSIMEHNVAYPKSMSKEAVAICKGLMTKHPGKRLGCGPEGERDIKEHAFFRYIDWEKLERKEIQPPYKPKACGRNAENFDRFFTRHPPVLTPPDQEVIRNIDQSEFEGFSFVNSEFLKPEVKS

| Compound | Ratio α/β (PKC β II; IC50 PKC α / IC50 PKC β II) | IC50 (PKC β II; [1]) [nM] | IC50 (PKC α; [2]) [nM] | IC50 (PKC β II; read-out: Inhibition of PKC activity IC50 PKC β II; Protein Kinase C, Human Recombinant; test substance 1 nM-10 µM; 37°C, 15 minutes) [nM] | IC50 (PKC α; [3]) [nM] |
| --- | --- | --- | --- | --- | --- |
| CC(C)(C)OC(=O)C1CCN(CCCn2cc(C3=C(Nc4ccccc4)C(=O)NC3=O)c3ccccc32)CC1 [Example 2-51, 3-[1-{3-[4-(tert-butoxycarbonyl)piperidino]propyl}-1H-indol-3-yl]-4-(phenylamino)-1H-pyrrole-2,5-dione] | 38 | 27 | 1020 | – | – |
| O=C1NC(=O)C(c2c3n(c4ccccc24)C[C@@H](CO)C3)=C1Nc1ccccc1 [Example 4-60] | 115 | 4 | – | – | 458 |
| CN(C)C[C@@H]1CCc2c(C3=C(Nc4ccccc4)C(=O)NC3=O)c3ccccc3n2C1 [Example 4-41] | 74 | 6 | – | – | 445 |
| O=C1NC(=O)C(c2c[nH]c3ccccc23)=C1Nc1cccc(F)c1 [Example 1-12, 3-[(3-fluorophenyl)amino]-4-(1H-indol-3-yl)-1H-pyrrole-2,5-dione] | 29 | 249 | 7160 | – | – |
| O=C1NC(=O)C(c2cn(CCCO)c3ccccc23)=C1Nc1ccc(Cl)c(Cl)c1 [Example 2-6, 3-[(3,4-dichlorophenyl)amino]-4-[1-(3-hydroxypropyl)-1H-indol-3-yl]-1H-pyrrole-2,5-dione] | 55 | 60 | 3310 | – | – |
| CC(=O)OCCn1cc(C2=C(Nc3ccccc3)C(=O)NC2=O)c2ccccc21 [Example 2-7, 3-[1-(2-acetoxyethyl)-1H-indol-3-yl]-4-(phenylamino)-1H-pyrrole-2,5-dione] | 57 | 56 | 3170 | – | – |
| O=C1NC(=O)C(c2cn(CCCCCn3ccnc3)c3ccccc23)=C1Nc1ccccc1 [Example 2-41, 3-[1-(5-imidazol-1-ylpentyl)-1H-indol-3-yl]-4-(phenylamino)-1H-pyrrole-2,5-dione] | 44 | 62 | 2740 | – | – |
| O=C1NC(=O)C(c2cn(CCCN3CCN(CCO)CC3)c3ccccc23)=C1Nc1ccccc1 [Example 2-32, 3-[1-{3-[4-(2-hydroxyethyl)piperazin-1-yl]propyl}-1H-indol-3-yl]-4-(phenylamino)-1H-pyrrole-2,5-dione] | 57 | 19 | 1080 | – | – |
| CN1CCN(CCCn2cc(C3=C(Nc4ccccc4)C(=O)NC3=O)c3ccccc32)CC1 [Example 2-26, 3-[1-{3-(4-methylpiperazin-1-yl)propyl}-1H-indol-3-yl]-4-(phenylamino)-1H-pyrrole-2,5-dione] | – | 23 | 968 | – | – |
| O=C1NC(=O)C(c2cn(CCCCn3ccnc3)c3ccccc23)=C1Nc1cccc(Cl)c1 [Example 2-40, 3-[(3-chlorophenyl)amino]-4-[1-(4-imidazol-1-ylbutyl)-1H-indol-3-yl]-1H-pyrrole-2,5-dione] | 41 | 19 | 770 | – | – |
| COc1ccc(NC2=C(c3cn(CCCn4ccnc4)c4ccccc34)C(=O)NC2=O)cc1 [Example 2-65, 3-[1-(3-imidazol-1-ylpropyl)-1H-indol-3-yl]-4-[(4-metholyphenyl)amino]-1H-pyrrole-2,5-dione] | 47 | 10 | 473 | – | – |

Now from value to molecule, other results behind:

| Ratio α/β (PKC β II; IC50 PKC α / IC50 PKC β II) | IC50 (PKC β II; [1]) [nM] | IC50 (PKC α; [2]) [nM] | IC50 (PKC β II; read-out: Inhibition of PKC activity IC50 PKC β II; Protein Kinase C, Human Recombinant; test substance 1 nM-10 µM; 37°C, 15 minutes) [nM] | Compound | IC50 (PKC α; [3]) [nM] |
| --- | --- | --- | --- | --- | --- |
| 74 | – | – | 34 | CCN(C)C[C@@H]1CCc2c(C3=C(Nc4cccc(SC)c4)C(=O)NC3=O)c3ccccc3n2C1 [Example 4-48] | 2530 |
| 56 | 29 | 1630 | – | O=C1NC(=O)C(c2cn(CC3CCN(CC(O)CO)CC3)c3ccccc23)=C1Nc1ccccc1 (centres unmarked) [Example 3-5, 3-[1-{[1-(2,3-dihydroxypropyl)piperidin-4-yl]methyl}-1H-indol-3-yl]-4-(phenylamino)-1H-pyrrole-2,5-dione] | – |
| 27 | 18 | 484 | – | O=C1NC(=O)C(c2cn(CC3CCCNC3)c3ccccc23)=C1Nc1ccccc1 (centres unmarked) [Example 3-1, 3-(phenylamino)-4-[1-(3-piperidylmethyl)-1H-indol-3-yl]-1H-pyrrole-2,5-dione] | – |
